A short description of test [1]: Cytotoxicity against mouse L5178 cells assessed as reduction in cell viability after 72 hrs by MTT assay. The class given is functional, cell-based. Particulars: L5178, 72 h. For orientation: Formazan colour is commonly taken as a measure of viable cells.
Test [2] in a line: Cytotoxicity against mouse L5178B1 cells transfected with pHa MDR1/A retrovirus assessed as reduction in cell viability after 72 hrs by MTT assay. The class given is functional, cell-based. As to conditions: MDR1, 72 h.
A short description of test [3]: Antioxidant activity assessed as hydroxyl radical scavenging activity by measuring inhibition of damage to 2-deoxy-D-ribose after 3 mins by TBA-based Fenton reaction assay. In kind it is functional.

The source of these data is ChEMBL document CHEMBL4422633, “Antioxidant-Inspired Drug Discovery: Antitumor Metabolite Is Formed in Situ from a Hydroxycinnamic Acid Derivative upon Free-Radical Scavenging” (J Med Chem, 2019).

The structures appear in SMILES notation.

The IC50 is the point on the concentration scale where inhibition reaches its midpoint.

Consider `COC(=O)/C=C/c1ccc(O)c(O)c1` [METHYLCAFFEATE], for which the IC50 is 104 µM in test [1] and 113 µM in test [2].
Turning to `CC(C)(C)/[N+]([O-])=C/c1ccc(S(=O)(=O)O)cc1S(=O)(=O)O`, in test [3], the IC50 came to 1830 µM.
For the compound `O=Cc1ccc(O)cc1` [4-HYDROXYBENZALDEHYDE], the IC50 in test [1] and in test [2] was over 150 µM throughout.
